This experiment concerns the target T1, MKNK1 (MNK1) (Homo sapiens, UniProt Q9BUB5).
T1 construct: purchased Thermo Fisher Scientific (Life Technologies) SelectScreen
Put plainly: SelectScreen Z'LYTE. It counts as biochemical. The gist of the method:
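SelectScreen broad panel; activity (Z'LYTE, Adapta) plus binding formats. ATP: Km app for CSF1R Z'LYTE; 10 for CAMK1 Adapta. Readout = % per kinase.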

As a reminder, the inhibition is the drop in the measured response relative to a control, in per cent.

T1 sequence (Q9BUB5 whole entry): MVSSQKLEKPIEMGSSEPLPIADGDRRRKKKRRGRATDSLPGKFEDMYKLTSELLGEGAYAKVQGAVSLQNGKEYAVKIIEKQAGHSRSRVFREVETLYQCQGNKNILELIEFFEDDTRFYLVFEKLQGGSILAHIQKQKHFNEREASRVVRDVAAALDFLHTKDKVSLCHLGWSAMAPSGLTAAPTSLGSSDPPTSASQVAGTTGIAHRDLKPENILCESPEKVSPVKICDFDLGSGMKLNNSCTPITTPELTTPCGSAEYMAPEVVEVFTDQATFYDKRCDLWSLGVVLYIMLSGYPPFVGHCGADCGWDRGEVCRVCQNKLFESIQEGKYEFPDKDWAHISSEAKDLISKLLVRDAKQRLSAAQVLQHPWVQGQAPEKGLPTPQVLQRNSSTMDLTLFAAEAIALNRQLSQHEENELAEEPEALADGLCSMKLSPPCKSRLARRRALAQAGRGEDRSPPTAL

Turning to `CN(C(=O)CN1CCOCC1)c1ccc2sc3c(-c4cccc5c(=O)cc(N6CC7CCC(C6)O7)oc45)cccc3c2c1` [NU5455], the inhibition at 1 µM is -10.7%.
